Laboratory results: US5470854A, “2-phenylbenzo[B]furans, process for their manufacture and pharmaceutical preparations containing them” (Schering Aktiengesellschaft, priority 1991, dated 1995)

Tests used:
[1] = biological target: T1, oestrogen receptor (Bos taurus, UniProt P49884); assay: Relative bonding affinity to the oestrogen receptor (competition with 3H-17β-Estradiol); format: binding, calf; conditions: for RBA* (relative bonding affinity to the oestrogen receptor): calves' uteri, in relation to 17β-estradiol = 100
T1 construct: oestrogen receptor of a calf's uterus; from tissue; host or cells: calf uterus
T1 sequence (P49884 1-596): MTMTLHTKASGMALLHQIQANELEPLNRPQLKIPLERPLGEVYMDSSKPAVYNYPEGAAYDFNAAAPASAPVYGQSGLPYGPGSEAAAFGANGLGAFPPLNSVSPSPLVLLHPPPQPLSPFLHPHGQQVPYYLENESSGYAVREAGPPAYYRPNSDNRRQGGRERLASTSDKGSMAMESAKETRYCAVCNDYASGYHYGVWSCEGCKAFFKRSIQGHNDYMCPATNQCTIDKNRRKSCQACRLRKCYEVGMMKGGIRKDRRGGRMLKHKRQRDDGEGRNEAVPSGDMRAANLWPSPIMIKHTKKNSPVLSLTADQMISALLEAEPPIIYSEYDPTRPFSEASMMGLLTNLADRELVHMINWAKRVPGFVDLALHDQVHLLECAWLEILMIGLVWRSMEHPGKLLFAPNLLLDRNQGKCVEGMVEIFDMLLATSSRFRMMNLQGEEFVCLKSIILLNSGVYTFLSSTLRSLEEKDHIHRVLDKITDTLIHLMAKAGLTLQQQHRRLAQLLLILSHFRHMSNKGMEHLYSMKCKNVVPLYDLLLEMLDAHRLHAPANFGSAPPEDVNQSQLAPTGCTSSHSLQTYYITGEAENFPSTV
From the text: The test methodology is described in Cancer Treatment Reviews 1984, 11, 147.
*Relative bonding affinities to the oestrogen receptor of calves' uteri,
in relation to 17β-estradiol = 100

[2] = system: uterus of infantile mice; assay: Uterotrophic test (in-vivo test on infantile mice); conditions: uterus dry weight (mg)/body weight (g) × 100
Method: (§1) The effectiveness of these compounds was found in an in-vivo test on infantile mice. This test is extensively described in Cancer Treatment Reviews 1984, 11, 147, and J. Med. Chem., 1984, 27, 1439.
(§2) ^a dosage/animal, administered s.c. on three consecutive days in oliv
(§3) ^b uterus dry weight (mg)/body weight (g) × 100, determined 24
(§4) hours after the final injection.

[3] = system: uterus of infantile mice; assay: Anti-uterotrophic test (in-vivo test on infantile mice); conditions: simultaneous 0.4 μg oestron/animal/day; for anti-uterotrophic test, effect: uterus dry weight (mg)/body weight (g) × 100
Method: as §1, §2, §3, §4
^c simultaneous administration of 0.4 μg oestron/animal/day.

[4] = system: human MCF-7 mamma carcinoma cells; assay: Effect on cell growth of MCF-7 cells; format: cell-based; conditions: for activity at 10 µM / activity at 1 µM / activity at 0.1 µM / activity at 5 µM: Homo sapiens, MCF7, mean of 16 individual results, read-out: T/C (corrected); for activity at 10 µM: 1 × 10^-5 M; for activity at 1 µM: 1 × 10^-6 M; for activity at 0.1 µM: 1 × 10^-7 M; for activity at 5 µM: 5 × 10^-6 M
Method: Data given as corrected T/C values (%).
^a Inhibiting effect on MCF7 cells: quotient of optical densities fro
standard deviation through error reckoning according to GAUSS.
^b Substance concentration (mol/1) in incubation medium.
^c Significant p < 0.01 in relation to control group (C).

[5] = 1 μg/animal s.c. on three consecutive days
[6] = 5 μg/animal s.c. on three consecutive days
[7] = 25 μg/animal s.c. on three consecutive days
[8] = 125 μg/animal s.c. on three consecutive days

Compound	affinity to the oestrogen (estradiol) receptor, in words [1]	RBA* (relative bonding affinity to the oestrogen receptor) [1]	uterotrophic test, effect [2, 5] [mg/g × 100]	uterotrophic test, effect [2, 6] [mg/g × 100]	uterotrophic test, effect [2, 7] [mg/g × 100]	uterotrophic test, effect [2, 8] [mg/g × 100]	anti-uterotrophic test, inhibition ([3]; 5 μg/animal s.c.) [%]	anti-uterotrophic test, inhibition ([3]; 25 μg/animal s.c.) [%]	anti-uterotrophic test, inhibition ([3]; 125 μg/animal s.c.) [%]	anti-uterotrophic test, effect ([3]; 5 μg/animal s.c.) [mg/g × 100]	anti-uterotrophic test, effect ([3]; 25 μg/animal s.c.) [mg/g × 100]	anti-uterotrophic test, effect ([3]; 125 μg/animal s.c.) [mg/g × 100]	effect on the growth of MCF-7 / hormone-dependent tumour cells, in words [4]	activity at 10 µM [4] [%]	activity at 1 µM [4] [%]	activity at 0.1 µM [4] [%]	activity at 5 µM [4] [%]	further results
Cc1c(-c2ccc(O)cc2)sc2ccc(O)cc12 [Compound 102a, 5-hydroxy-2-(4-hydroxypheny)-3-methyibenxo[b]thiophen]	greatest affinity in relation to estradiol	26,0	15.8 ± 2.1	20.8 ± 2.7	15.7 ± 2.3	18.5 ± 3.0	12	68	42	42.4 ± 4.0	23.1 ± 3.8	32.2 ± 3.8	strongly inhibiting effect	14.7 ± 6.4	87.4 ± 20	71.3 ± 18.8	48.5 ± 14.7	
CCCCc1c(-c2ccc(O)cc2)oc2ccc(O)cc12 [Compound 64a, 3-butyl-5-hydroxy-2-(4-hydroxyphenyl)benzo[b]furan]		1,6																
CCc1c(-c2ccc(O)cc2)sc2cc(O)ccc12 [Compound 104b, 3-ethyl-6-hydroxy-2-(4-hydroxyphenyl)benzo[b]thiophen]	greatest affinity in relation to estradiol	27,6	18.0 ± 4.0	22.7 ± 5.9	29.3 ± 4.5	39.9 ± 6.1	32	33	31	37.9 ± 6.9	37.3 ± 4.2	38.0 ± 5.4	strongly inhibiting effect	4.2 ± 6	91.9 ± 21.2	94 ± 21.2	5.7 ± 5.8	
Cc1c(-c2ccc(O)cc2)sc2cc(O)ccc12 [Compound 102b, 6-hydroxy-2-(4-hydroxyphenyl)-3-methylbenzo[b]thiophen]		9,7	10.9 ± 2.1	12.1 ± 1.9	16.9 ± 2.9	21.9 ± 4.6	7	30	31	47.0 ± 7.8	38.5 ± 3.7	38.1 ± 5.8	strongly inhibiting effect	10.9 ± 6.7	133 ± 43.4	125 ± 37.2	54.9 ± 17.9	
CCCc1c(-c2ccc(O)cc2)sc2cc(O)ccc12 [Compound 106b, 6-hydroxy-2-(4-hydroxyphenyl)-3-propylbenzo[b]thiophen]	greatest affinity in relation to estradiol	25,1	16.6 ± 4.6	22.4 ± 3.1	24.5 ± 4.8	35.1 ± 4.9	34	39	40	37.0 ± 6.5	35.3 ± 6.7	34.8 ± 6.2	strongly inhibiting effect	1.8 ± 3.1	69 ± 15.1	81.7 ± 17.5	3.6 ± 3	
CCc1c(-c2ccc(O)cc2)oc2cc(O)ccc12 [Compound 62b, 3-ethyl-6-hydroxy-2-(4-hydroxyphenyl)benzo[b]furan]		0,6	12.9 ± 2.5	14.5 ± 3.7	17.0 ± 3.3	18.3 ± 6.3			12	60.3 ± 5.8	56.9 ± 7.1	49.8 ± 7.9						
CCc1c(-c2ccc(O)cc2)sc2ccc(O)cc12 [Compound 104a, 3-ethyl-5-hydroxy-2-(4-hydroxyphenyl)benzo[b]thiophen]	greatest affinity in relation to estradiol	59,6	30.3 ± 7.7	38.5 ± 5.4	44.2 ± 6.6	19.6 ± 5.2	27		30	37.0 ± 3.4	44.1 ± 6.7	36.3 ± 4.0	strongly inhibiting effect	3.2 ± 3.2	59.1 ± 15.9	61.2 ± 22.1	2.4 ± 3.9	uterotrophic test, effect ([2]; 0.2 μg/animal s.c. on three consecutive days, 24 hours after final injection): 27.6 ± 3.8 mg/g × 100; anti-uterotrophic test, inhibition ([3]; 1 μg/animal s.c.): 32%; anti-uterotrophic test, effect ([3]; 0.2 μg/animal s.c.): 49.8 ± 1.4 mg/g × 100; anti-uterotrophic test, effect ([3]; 1 μg/animal s.c.): 35.3 ± 7.3 mg/g × 100
Cc1c(-c2ccc(O)cc2)oc2cc(O)ccc12 [Compound 61b, 6-hydroxy-2-(4-hydroxyphenyl)-3-methylbenzo[b]furan]		0,2																
Cc1c(-c2ccc(O)cc2)oc2ccc(O)cc12 [Compound 61a]		2,0											strongly inhibiting effect	13.3 ± 5.3	78.1 ± 17.2	72.3 ± 18.2	37.7 ± 11.9	
CC/C(=C(\c1ccccc1)c1ccc(OCCN(C)C)cc1)c1ccccc1 [Tam, Tamoxifen, reference compound]														-5.7 ± 3.4	59.1 ± 14.1	56.5 ± 16.3		
CCCc1c(-c2ccc(O)cc2)oc2cc(O)ccc12 [Compound 63b, 6-hydroxy-2-(4-hydroxyphenyl)-3-propylbenzo[b]furan]		1,7																
CCCc1c(-c2ccc(O)cc2)oc2ccc(O)cc12 [Compound 63a, 5-hydroxy-2-(4-hydroxyphenyl)-3-propylbenzo[b]furan]	greatest affinity in relation to estradiol	20,0											strongly inhibiting effect	-2.1 ± 2.8	50.5 ± 8.8	51 ± 11.3	-0.1 ± 3.6	
CCCCc1c(-c2ccc(O)cc2)oc2cc(O)ccc12 [Compound 64b, 3-butyl-6-hydroxy-2-(4-hydroxyphenyl)benzo[b]furan]		0,6																
